Our source for the IC50 and Ki values is ChEMBL document CHEMBL1909046, “DrugMatrix in vitro pharmacology data”.

Series [1] in a line: DRUGMATRIX: Sigma2 radioligand binding (ligand: [3H] Ifenprodil). The following applies: Not Active = under 50% inhibition at 10 µM. Format: cell membranes, Rattus norvegicus, Wistar, Brain, Membrane.
Series [2] addresses T1, Vasoactive intestinal polypeptide receptor 1 (Homo sapiens, UniProt P32241).
T1 sequence (P32241 whole entry): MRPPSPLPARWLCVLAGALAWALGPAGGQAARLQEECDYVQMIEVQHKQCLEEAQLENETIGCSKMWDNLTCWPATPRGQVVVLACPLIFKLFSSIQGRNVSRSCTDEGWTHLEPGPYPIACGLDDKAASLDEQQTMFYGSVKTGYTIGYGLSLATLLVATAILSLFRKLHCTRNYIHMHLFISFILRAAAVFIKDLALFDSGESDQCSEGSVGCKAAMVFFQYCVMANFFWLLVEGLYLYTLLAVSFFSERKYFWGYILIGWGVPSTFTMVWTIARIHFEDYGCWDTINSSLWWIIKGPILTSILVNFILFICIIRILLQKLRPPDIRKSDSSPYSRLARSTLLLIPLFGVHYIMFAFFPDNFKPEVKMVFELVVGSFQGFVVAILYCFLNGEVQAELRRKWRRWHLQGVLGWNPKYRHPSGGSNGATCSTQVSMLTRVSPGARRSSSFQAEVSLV
Format: cell membranes, Membrane. The following applies: ht-29.

Series [3] addresses Carbonic anhydrase 2 (Homo sapiens, UniProt P00918). Briefly: DRUGMATRIX: Carbonic Anhydrase II enzyme inhibition (substrate: 4-Nitrophenyl acetate (4-NPA)). Format: tissue-based, Erythrocyte. The following applies: Not Active = under 50% inhibition at 10 µM.
A short description of series [4]: DRUGMATRIX: GABAA, Muscimol, Central radioligand binding (ligand: [3H] Muscimol). The series is classed as cell membranes, Rattus norvegicus, Wistar, Brain, Membrane. The following applies: Not Active = under 50% inhibition at 10 µM.
The nature of series [5]: DRUGMATRIX: Glutamate, NMDA, Agonism radioligand binding (ligand: [3H] CGP-39653). As to conditions: Not Active = under 50% inhibition at 10 µM. Format: cell membranes, Rattus norvegicus, Wistar, Cerebral cortex, Membrane.
Series [6] concerns the target Nitric oxide synthase 1 (Rattus norvegicus, UniProt P29476). Format: tissue-based, Cerebellum. Also: in other assays of this panel Not Active means under 50% inhibition at 10 µM.
Series [7] has as its target Cytochrome P450 2D6 (Homo sapiens, UniProt P10635). The following applies: bti-tn-5b1-4. Also: in other assays of this panel Not Active means under 50% inhibition at 10 µM.

Sequence of Nitric oxide synthase 1 (P29476 whole entry): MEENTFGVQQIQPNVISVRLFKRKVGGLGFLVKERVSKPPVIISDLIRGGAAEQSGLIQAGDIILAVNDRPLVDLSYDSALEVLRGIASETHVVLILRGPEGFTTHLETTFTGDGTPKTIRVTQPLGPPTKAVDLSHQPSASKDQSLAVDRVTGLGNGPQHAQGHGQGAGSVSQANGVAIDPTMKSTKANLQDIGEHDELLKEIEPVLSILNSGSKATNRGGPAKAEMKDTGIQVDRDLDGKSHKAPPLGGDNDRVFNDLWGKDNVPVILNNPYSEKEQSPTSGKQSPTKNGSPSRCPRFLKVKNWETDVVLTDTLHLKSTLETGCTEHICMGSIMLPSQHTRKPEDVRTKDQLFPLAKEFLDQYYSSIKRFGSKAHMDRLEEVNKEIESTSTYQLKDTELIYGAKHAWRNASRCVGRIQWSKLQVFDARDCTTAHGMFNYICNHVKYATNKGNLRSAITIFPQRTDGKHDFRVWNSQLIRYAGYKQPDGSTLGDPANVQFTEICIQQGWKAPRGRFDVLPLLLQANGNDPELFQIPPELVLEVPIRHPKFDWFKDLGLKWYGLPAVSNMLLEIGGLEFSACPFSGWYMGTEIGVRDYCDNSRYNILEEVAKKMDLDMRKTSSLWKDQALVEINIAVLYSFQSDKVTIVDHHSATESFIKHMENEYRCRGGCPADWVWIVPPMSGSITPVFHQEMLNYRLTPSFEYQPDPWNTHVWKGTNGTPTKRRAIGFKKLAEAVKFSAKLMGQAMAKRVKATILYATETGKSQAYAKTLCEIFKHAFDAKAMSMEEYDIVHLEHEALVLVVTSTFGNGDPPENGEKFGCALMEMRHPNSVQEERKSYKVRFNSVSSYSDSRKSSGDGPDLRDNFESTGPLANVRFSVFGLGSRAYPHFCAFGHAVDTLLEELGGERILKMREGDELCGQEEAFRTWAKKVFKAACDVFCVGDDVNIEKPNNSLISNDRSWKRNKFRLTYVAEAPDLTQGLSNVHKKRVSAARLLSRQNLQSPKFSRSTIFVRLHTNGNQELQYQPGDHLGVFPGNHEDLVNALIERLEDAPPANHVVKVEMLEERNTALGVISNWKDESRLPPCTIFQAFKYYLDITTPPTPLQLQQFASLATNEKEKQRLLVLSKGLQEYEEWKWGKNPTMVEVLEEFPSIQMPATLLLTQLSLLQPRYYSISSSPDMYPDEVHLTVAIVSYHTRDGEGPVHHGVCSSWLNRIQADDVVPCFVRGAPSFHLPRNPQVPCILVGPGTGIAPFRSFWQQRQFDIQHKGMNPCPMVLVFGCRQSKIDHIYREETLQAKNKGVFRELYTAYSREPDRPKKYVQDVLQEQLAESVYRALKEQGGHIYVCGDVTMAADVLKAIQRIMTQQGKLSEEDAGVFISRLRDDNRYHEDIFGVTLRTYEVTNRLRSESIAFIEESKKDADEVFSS
Sequence of Cytochrome P450 2D6 (P10635 whole entry): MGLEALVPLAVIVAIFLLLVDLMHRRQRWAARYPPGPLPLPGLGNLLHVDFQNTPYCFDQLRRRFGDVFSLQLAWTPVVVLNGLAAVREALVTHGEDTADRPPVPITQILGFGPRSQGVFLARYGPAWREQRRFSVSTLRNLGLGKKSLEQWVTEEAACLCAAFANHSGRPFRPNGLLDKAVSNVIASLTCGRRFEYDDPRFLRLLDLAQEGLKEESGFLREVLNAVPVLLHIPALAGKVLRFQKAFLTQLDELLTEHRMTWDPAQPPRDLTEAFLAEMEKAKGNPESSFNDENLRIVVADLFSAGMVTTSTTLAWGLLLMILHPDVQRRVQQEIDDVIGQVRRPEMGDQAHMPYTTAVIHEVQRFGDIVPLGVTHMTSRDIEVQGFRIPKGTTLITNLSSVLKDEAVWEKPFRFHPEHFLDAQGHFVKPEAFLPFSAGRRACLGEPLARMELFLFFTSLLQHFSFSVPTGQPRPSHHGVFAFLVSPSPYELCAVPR

As usually defined, the IC50 is the concentration that gives 50% inhibition. By Ki is commonly meant the dissociation constant of the complex between target and ligand, obtained from inhibition or displacement. In the case of `Cc1c(C)c2c(c(C)c1O)CCC(C)(COc1ccc(CC3SC(=O)NC3=O)cc1)O2` (centres undefined) [TROGLITAZONE], the IC50 entry is “Not Active” in series [1]; “Not Active” in series [2]; 970 nM in series [3] (read-out: IC50); “Not Active” in series [4]; “Not Active” in series [5]; “Not Active” in series [6]. Moreover, the IC50 result in series [7] is “Not Active”. Moreover, the Ki entry in series [1], in series [4], in series [5] and in series [7] was “Not Active” throughout.

For `c1ccc([C@H]2CN3CCSC3=N2)cc1` [LEVAMISOLE], the concentration for half-maximal inhibition (IC50) was 4390 nM in series [1] (read-out: IC50); “Not Active” in series [2]; “Not Active” in series [3] (erythrocyte); “Not Active” in series [4]; “Not Active” in series [5]; “Not Active” in series [6]. The IC50 result in series [7] is listed as “Not Active”. Also, the inhibitory constant (Ki) in series [1] (read-out: Ki) was 2700 nM; in series [4], “Not Active”; in series [5] it was “Not Active”; in series [7], “Not Active”.

For `CC[C@]1(O)C[C@H]2CN(CCc3c([nH]c4ccccc34)[C@@](C(=O)OC)(c3cc4c(cc3OC)N(C=O)[C@H]3[C@@](O)(C(=O)OC)[C@H](OC(C)=O)[C@]5(CC)C=CCN6CC[C@]43[C@@H]65)C2)C1` [VINCRISTINE], the IC50 result in series [1], in series [2], in series [3] (erythrocyte), in series [4], in series [5] and in series [6] was “Not Active” in each case. Also, the 50% inhibitory concentration (IC50) entry in series [7] is recorded as “Not Active”. Further, the inhibitory constant (Ki) result in series [1], in series [4], in series [5] and in series [7] was “Not Active” throughout.

In the case of `O=c1ncn2nc(Sc3ccc(F)cc3F)ccc2c1-c1c(Cl)cccc1Cl` [NEFLAMAPIMOD], the IC50 entry in series [1], in series [2], in series [3] (erythrocyte), in series [4], in series [5] and in series [6] was “Not Active” in each case. In series [7], the IC50 entry is “Not Active”. Moreover, the Ki result in series [1], in series [4], in series [5] and in series [7] was “Not Active” in each case.

Turning to `NS(=O)(=O)c1cc2c(cc1Cl)NC(C(Cl)Cl)NS2(=O)=O` (centres undefined) [TRICHLORMETHIAZIDE], the IC50 result in series [1], in series [2], in series [3] (erythrocyte), in series [4], in series [5] and in series [6] was “Not Active” each time. The concentration for half-maximal inhibition (IC50) result in series [7] is listed as “Not Active”. The Ki result in series [1], in series [4], in series [5] and in series [7] was “Not Active” each time.

For `CCCOc1ccccc1-c1nc2nn[nH]c2c(=O)[nH]1` [ZAPRINAST], the IC50 entry in series [1], in series [2], in series [3] (erythrocyte), in series [4], in series [5] and in series [6] was “Not Active” in each case. Besides, the 50% inhibitory concentration (IC50) entry in series [7] is given as “Not Active”. The Ki entry in series [1], in series [4], in series [5] and in series [7] was “Not Active” in each case.

Consider `N#CC(C#N)=Cc1ccc(O)c(O)c1` [TYRPHOSTIN 23], for which the 50% inhibitory concentration (IC50) entry in series [1], in series [2], in series [3] (erythrocyte), in series [4], in series [5] and in series [6] was “Not Active” in each case. For the same compound, the half-inhibitory concentration (IC50) result in series [7] is reported as “Not Active”. Also, the inhibition constant Ki entry in series [1], in series [4], in series [5] and in series [7] was “Not Active” in each case.

Regarding `C=CCC1(C(C)CCC)C(=O)NC(=O)NC1=O` (centres undefined) [SECOBARBITAL], the concentration for half-maximal inhibition (IC50) entry in series [1], in series [2], in series [3] (erythrocyte), in series [4], in series [5] and in series [6] was “Not Active” throughout. The IC50 entry in series [7] was “Not Active”. The Ki entry in series [1], in series [4], in series [5] and in series [7] was “Not Active” each time.

For `OCCN(CCO)c1nc(N2CCCCC2)c2nc(N(CCO)CCO)nc(N3CCCCC3)c2n1` [DIPYRIDAMOLE], the IC50 result in series [1], in series [2], in series [3] (erythrocyte), in series [4], in series [5] and in series [6] was “Not Active” each time. In addition, the IC50 result in series [7] was “Not Active”. Further, the inhibition constant Ki result in series [1], in series [4], in series [5] and in series [7] was “Not Active” in each case.

For `Nc1c2c(nc3ccccc13)CCCC2` [TACRINE], the half-inhibitory concentration (IC50) entry in series [1], in series [2], in series [3] (erythrocyte), in series [4], in series [5] and in series [6] was “Not Active” in each case. Also, the inhibition constant Ki result in series [1], in series [4] and in series [5] was “Not Active” throughout.

For the compound `Cn1ccnc1S` [METHIMAZOLE], the concentration for half-maximal inhibition (IC50) result in series [1], in series [2], in series [3] (erythrocyte), in series [4], in series [5] and in series [6] was “Not Active” each time. The concentration for half-maximal inhibition (IC50) entry in series [7] is listed as “Not Active”. Besides, the Ki entry in series [1], in series [4], in series [5] and in series [7] was “Not Active” throughout.

On to `N[C@@H]1[C@H]2CN(c3nc4c(cc3F)c(=O)c(C(=O)O)cn4-c3ccc(F)cc3F)C[C@@H]12` [TROVAFLOXACIN], for which the IC50 entry in series [1], in series [2], in series [3] (erythrocyte), in series [4], in series [5] and in series [6] was “Not Active” in each case. Besides, in series [7], the half-maximal inhibitory concentration (IC50) result is on record as “Not Active”. In addition, the Ki entry in series [1], in series [4], in series [5] and in series [7] was “Not Active” each time.

For `CC/C(=C(\c1ccccc1)c1ccc(OCCN(C)C)cc1)c1ccccc1` [TAMOXIFEN], the IC50 entry in series [2], in series [3] (erythrocyte) and in series [6] was “Not Active” each time.

On to `Nc1nc2ccc(OC(F)(F)F)cc2s1` [RILUZOLE], for which the IC50 result in series [1], in series [2], in series [3] (erythrocyte), in series [4], in series [5] and in series [6] was “Not Active” throughout. Further, the inhibitory constant (Ki) result in series [1], in series [4] and in series [5] was “Not Active” each time.

Consider `CN1CCN(CCCN2c3ccccc3Sc3ccc(Cl)cc32)CC1` [PROCHLORPERAZINE], for which the IC50 result in series [2], in series [3] (erythrocyte) and in series [6] was “Not Active” throughout.

On to `CC[C@@H](CO)NC(=O)[C@@H]1C=C2c3cccc4[nH]cc(c34)C[C@H]2N(C)C1` [METHYLERGONOVINE], for which the IC50 result in series [1], in series [2], in series [3] (erythrocyte), in series [4], in series [5] and in series [6] was “Not Active” throughout. Besides, the Ki entry in series [1], in series [4] and in series [5] was “Not Active” each time.

In the case of `CCOC(=O)N1CCC(=C2c3ccc(Cl)cc3CCc3cccnc32)CC1` [LORATADINE], the IC50 result in series [1], in series [2], in series [3] (erythrocyte), in series [4], in series [5] and in series [6] was “Not Active” in each case. Further, the Ki entry in series [1], in series [4] and in series [5] was “Not Active” throughout.

As to `Cc1nc2n(c(=O)c1CCN1CCC(c3noc4cc(F)ccc34)CC1)CCCC2` [RISPERIDONE], the half-maximal inhibitory concentration (IC50) entry in series [2], in series [3] (erythrocyte) and in series [6] was “Not Active” throughout.

`CCCCc1oc2ccccc2c1C(=O)c1cc(I)c(OCCN(CC)CC)c(I)c1` [AMIODARONE]: the 50% inhibitory concentration (IC50) entry in series [2], in series [3] (erythrocyte) and in series [6] was “Not Active” throughout.

As to `N[C@@H](Cc1cc(I)c(Oc2ccc(O)c(I)c2)c(I)c1)C(=O)O` [LIOTHYRONINE], the IC50 entry in series [2], in series [3] (erythrocyte), in series [6] and in series [7] was “Not Active” throughout. Further, the inhibitory constant (Ki) entry in series [7] is reported as “Not Active”.
